Assay results from patent publication US20090325959A1 (priority 2008, published 2009).
Where two headings read alike, the source gives them in different places.

Assays:
[1] = test system: NIH/3T3 cells; assay: NIH/3T3 cell morphology assay (actin cytoskeleton disruption); format: cell-based; conditions: score 0 (no effect) to 4 (complete disruption) of the actin cytoskeleton; 60 minutes
Procedure: NIH/3T3 cells were grown in DMEM-H containing glutamine and 10% Colorado Calf Serum. Cells were passaged regularly prior to reaching confluence. Eighteen to 24 hours prior to experimentation, the cells were plated onto Poly-L-Lysine-coated glass bottom 24-well plates. On the day of experimentation, the cell culture medium was removed and was replaced with the same medium containing from 10 nM to 25 μM of the test compound, and the cells were incubated for 60 minutes at 37° C. The culture medium was then removed and the cells were washed with warmed PBS and fixed for 10 minutes with warmed 4% paraformaldehyde. The cells were permeabilized with 0.5% Triton-X, stained with TRITC-conjugated phalloidin and imaged using a Nikon Eclipse E600 epifluorescent microscope to determine the degree of actin disruption. Results were expressed as a numerical score indicating the observed degree of disruption of the actin cytoskeleton at the test concentration, ranging from 0 (no effect) to 4 (complete disruption), and were the average of at least 2 determinations.

[2] = molecular target: T1, ROCK1 (Homo sapiens, UniProt Q13464); assay: Rho kinase inhibition assay (IMAP fluorescence polarization), ROCK1; format: biochemical;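 also: kinase reaction run 60 min at room temperature, then phosphorylated substrate captured on IMAP beads for 30 min, with fluorescence polarization read in mP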
T1 construct: purchased Upstate/Chemicon 14-601
T1 sequence (Q13464 17-535 limits assumed): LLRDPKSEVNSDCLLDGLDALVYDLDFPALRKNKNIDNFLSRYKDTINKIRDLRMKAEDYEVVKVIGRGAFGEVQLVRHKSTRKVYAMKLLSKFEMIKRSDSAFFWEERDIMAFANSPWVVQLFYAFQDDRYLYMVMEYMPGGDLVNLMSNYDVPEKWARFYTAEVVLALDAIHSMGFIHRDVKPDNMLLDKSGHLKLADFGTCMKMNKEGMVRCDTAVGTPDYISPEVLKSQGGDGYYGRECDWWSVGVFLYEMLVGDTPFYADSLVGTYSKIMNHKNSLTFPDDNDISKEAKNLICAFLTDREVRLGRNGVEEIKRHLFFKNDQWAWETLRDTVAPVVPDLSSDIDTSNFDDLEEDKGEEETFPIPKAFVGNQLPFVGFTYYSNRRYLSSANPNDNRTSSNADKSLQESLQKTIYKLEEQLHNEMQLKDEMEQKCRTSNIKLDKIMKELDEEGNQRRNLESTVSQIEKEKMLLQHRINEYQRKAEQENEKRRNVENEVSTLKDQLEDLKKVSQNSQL
Procedure: (§2) Following the pre-incubation, 10 μM ATP was added to initiate the reaction. After 60 minutes at room temperature, Molecular Devices IMAP™ binding solution was added to bind phosphorylated substrate. After 30 minutes of incubation in the presence of the IMAP™ beads, the fluorescence polarization was read and the ratio was reported as mP. IC50 values for compounds and EC50 values for ATP were calculated using the Prism software from Graphpad.

[3] = molecular target: T2, ROCK2 (Homo sapiens, UniProt O75116); assay: Rho kinase inhibition assay (IMAP fluorescence polarization), ROCK2; format: biochemical;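 also: kinase reaction started with 10 µM ATP and run 60 min at room temperature, then phosphorylated substrate captured on IMAP beads for 30 min and fluorescence polarization read in mP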
T2 construct: purchased Upstate/Chemicon 14-451
T2 sequence (O75116 11-552 limits assumed): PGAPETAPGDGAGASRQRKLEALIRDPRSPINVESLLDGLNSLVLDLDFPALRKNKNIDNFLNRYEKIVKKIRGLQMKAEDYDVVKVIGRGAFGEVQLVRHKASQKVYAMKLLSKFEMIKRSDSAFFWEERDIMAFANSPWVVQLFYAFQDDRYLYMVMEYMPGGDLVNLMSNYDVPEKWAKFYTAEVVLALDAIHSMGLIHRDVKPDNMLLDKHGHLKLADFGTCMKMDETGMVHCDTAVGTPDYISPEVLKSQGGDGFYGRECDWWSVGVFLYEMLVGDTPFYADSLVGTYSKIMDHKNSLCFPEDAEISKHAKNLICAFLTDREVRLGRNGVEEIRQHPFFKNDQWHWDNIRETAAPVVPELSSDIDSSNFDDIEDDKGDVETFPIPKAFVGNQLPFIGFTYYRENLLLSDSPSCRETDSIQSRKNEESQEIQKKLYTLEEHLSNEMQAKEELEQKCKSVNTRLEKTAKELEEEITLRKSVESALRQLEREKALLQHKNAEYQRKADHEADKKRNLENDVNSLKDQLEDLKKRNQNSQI
Procedure: as §2

[4] = test system: human neutrophils; assay: Human neutrophil chemotaxis induced by fMLP (modified Boyden chamber); format: cell-based; conditions: Neutrophil, 1 h, 1 μM fMLP challenge, one hour, read-out: Chemotaxis Avg. IC50
Source text: This assay is an in vitro assay of neutrophil chemotaxis that can be used to evaluate the ability of Rho Kinase inhibitor compounds of Formula I or II to inhibit the migration of human neutrophils, an inflammatory cell that has been implicated in the pathophysiology of allergic conjunctivitis.
Peripheral blood from healthy human volunteers was collected and the neutrophils were isolated by Ficoll-paque density centrifugation followed by dextran sedimentation and hypotonic lysis of the red blood cells. Neutrophil chemotaxis was assessed using a modified Boyden Chamber (Neuroprobe, 96-well) with a 3 μm pore polycarbonate membrane. The ability of the tested compounds to block chemotaxis induced by a 1 μM fMLP challenge during a one hour incubation at 37° C. with 5% CO2 was assessed in a dose response manner.

[5] = molecular target: T3, Akt3 human enzyme (Homo sapiens, UniProt Q9Y243); assay: Akt3 inhibition assay (IMAP FP); format: biochemical;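 also: kinase reaction run 60 min at room temperature after 30 µM ATP start, phosphorylated substrate captured on IMAP beads and read as fluorescence polarization (mP)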
T3 construct: purchased Upstate Chemicon 14-502
T3 sequence (Q9Y243 whole entry): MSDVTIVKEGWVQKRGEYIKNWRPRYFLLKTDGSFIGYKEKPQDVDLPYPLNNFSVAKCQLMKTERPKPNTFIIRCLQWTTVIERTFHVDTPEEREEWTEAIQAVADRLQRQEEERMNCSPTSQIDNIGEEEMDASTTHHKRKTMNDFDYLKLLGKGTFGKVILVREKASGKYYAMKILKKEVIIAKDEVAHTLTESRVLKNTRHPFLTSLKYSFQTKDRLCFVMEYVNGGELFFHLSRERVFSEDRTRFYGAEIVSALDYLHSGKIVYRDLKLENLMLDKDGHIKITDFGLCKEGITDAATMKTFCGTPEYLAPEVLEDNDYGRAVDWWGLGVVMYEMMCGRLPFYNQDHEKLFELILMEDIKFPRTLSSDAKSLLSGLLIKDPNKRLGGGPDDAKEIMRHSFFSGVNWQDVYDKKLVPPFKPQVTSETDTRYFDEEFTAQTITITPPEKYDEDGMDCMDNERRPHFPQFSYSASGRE
Procedure: Inhibition of Akt3 and p70S6K activity was determined using the IMAP™ FP Progressive Binding Kit (Molecular Devices product number R8127). […] Following the pre-incubation, 30 μM ATP was added to initiate the reaction. After 60 minutes at RT, Molecular Devices IMAP™ binding solution was added to bind phosphorylated substrate. After 30 minutes of incubation in the presence of the IMAP™ beads the fluorescence polarization was read and the ratio was reported as mP. IC50 results were calculated using the Prism software from Graphpad. The Ki values were determined according to the following formula: Ki=IC50/(1+([ATP Challenge]/EC50 ATP)).

[6] = test system: human monocytes; assay: Human monocyte cytokine secretion assay (LPS-stimulated); format: cell-based; conditions: average percent of stimulated IL-6 secretion from human monocytes at 10 μM of test compound
[7] = molecular target: T4, p70S6K human enzyme (Homo sapiens, UniProt P23443, T412E); assay: p70S6K inhibition assay (IMAP FP); format: biochemical;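 also: kinase reaction run at room temperature, phosphorylated substrate captured on IMAP beads and read as fluorescence polarization in mP, IC50 then converted to Ki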
T4 construct: purchased Upstate Chemicon 14-486
T4 sequence (P23443 1-421 T412E limits assumed): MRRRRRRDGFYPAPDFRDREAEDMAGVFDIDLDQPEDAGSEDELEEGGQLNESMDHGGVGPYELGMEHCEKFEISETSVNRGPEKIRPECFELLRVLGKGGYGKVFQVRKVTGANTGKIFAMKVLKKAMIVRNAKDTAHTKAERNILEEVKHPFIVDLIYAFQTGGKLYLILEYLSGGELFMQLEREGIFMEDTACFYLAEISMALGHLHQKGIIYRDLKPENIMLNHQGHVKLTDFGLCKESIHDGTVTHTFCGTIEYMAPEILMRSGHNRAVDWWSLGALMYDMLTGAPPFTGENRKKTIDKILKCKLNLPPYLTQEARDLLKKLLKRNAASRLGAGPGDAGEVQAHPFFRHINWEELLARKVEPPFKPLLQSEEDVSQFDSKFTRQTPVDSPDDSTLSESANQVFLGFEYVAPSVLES

[8] = Compound plasma concentrations in unsensitized mice at 15 min post administration; format: in vivo; conditions: mouse, 15 μmol/kg; mean compound plasma concentration in mice at 15 minutes post oral administration; read-out: Mouse Oral PK
Procedure: Additionally, compound concentrations were determined in the plasma and lungs of male, ovalbumin-sensitized, Balb/c mice from a murine model of asthma. Test compounds were formulated in water or 1% polysorbate 80 and dosed at 15 μmol/kg for intraperitoneal (IP) or oral (PO) administration or formulated for intratracheal (IT) administration and dosed at 5 μmol/kg, which directly targets the lungs. Following completion of the in vivo study, mice were euthanized and blood and plasma collected approximately 2.5-3 hours post administration of test compound for bronchodialator (BD) studies and 24 hours post administration for anti-inflamatory (AI) studies. Lungs were homogenized in Matrix A lysing tubes using a FastPrep 24 tissue and cell homogenizer (MP Biomedicals, Solon, Ohio). Both plasma samples and lung extracts were assayed for compound concentrations using an on-line, solid phase extraction LC/MS/MS system.

[9] = molecular target: T5, IRAK1 (Homo sapiens, UniProt P51617); assay: Kinase panel screen (KinaseProfiler), IRAK1; format: biochemical; conditions: 10 μM ATP
T5 construct: purchased Upstate, Millipore Bioscience Division (KinaseProfiler service)
T5 sequence (P51617 whole entry): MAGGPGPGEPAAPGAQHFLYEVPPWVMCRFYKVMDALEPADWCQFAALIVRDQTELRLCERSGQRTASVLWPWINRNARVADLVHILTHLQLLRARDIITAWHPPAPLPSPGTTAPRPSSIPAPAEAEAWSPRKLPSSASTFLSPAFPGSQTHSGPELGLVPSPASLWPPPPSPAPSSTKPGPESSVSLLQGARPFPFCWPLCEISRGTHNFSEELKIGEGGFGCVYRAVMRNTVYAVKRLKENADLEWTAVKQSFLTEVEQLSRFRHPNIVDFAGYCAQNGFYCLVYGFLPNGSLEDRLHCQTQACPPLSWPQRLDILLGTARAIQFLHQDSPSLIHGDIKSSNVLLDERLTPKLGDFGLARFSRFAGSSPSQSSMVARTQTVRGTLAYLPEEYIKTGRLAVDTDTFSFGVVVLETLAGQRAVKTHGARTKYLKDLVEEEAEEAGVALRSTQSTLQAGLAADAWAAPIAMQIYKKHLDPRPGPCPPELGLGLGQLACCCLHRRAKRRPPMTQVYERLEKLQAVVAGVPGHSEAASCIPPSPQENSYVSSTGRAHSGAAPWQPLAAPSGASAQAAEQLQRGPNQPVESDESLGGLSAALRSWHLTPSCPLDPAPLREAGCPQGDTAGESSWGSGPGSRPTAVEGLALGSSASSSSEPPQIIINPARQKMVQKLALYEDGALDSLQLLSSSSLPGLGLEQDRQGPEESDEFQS
Procedure: (§1) Compounds of Formulae I and II were examined for activity against a selected panel of kinases using the KinaseProfiler™ enzyme profiling services (Upstate, Millipore Bioscience Division). Percent kinase activity at 10 μM and 1 μM test compound and 10 μM ATP was determined against 40 wild-type recombinant human kinases according to Upstate's standard protocol: ASK1, BTK, CSK, c-RAF, GCK, GSK3β, IKKα, IKKβ, IRAK1, IRAK4, JNK1α1, JNK2α2, JNK3, ERK1, ERK2, MAPKAP-K2, MAPKAP-K3, MEK1, MKK4, MKK6, MKK7β, Mnk2, MSK1, PAK3, PDK1, PRAK, ROCK1, Rsk2, SAPK2a, SAPK2b, SAPK3, SAPK4, SRPK1, SRPK2, Syk, TAK1, TBK1, PI3-Kβ, PI3-Kγ, PI3-Kδ.

[10] = molecular target: T6, GCK (Homo sapiens, UniProt Q12851); assay: Kinase panel screen (KinaseProfiler), GCK; format: biochemical
T6 construct: purchased Upstate, Millipore Bioscience Division (KinaseProfiler service)
T6 sequence (Q12851 1-820): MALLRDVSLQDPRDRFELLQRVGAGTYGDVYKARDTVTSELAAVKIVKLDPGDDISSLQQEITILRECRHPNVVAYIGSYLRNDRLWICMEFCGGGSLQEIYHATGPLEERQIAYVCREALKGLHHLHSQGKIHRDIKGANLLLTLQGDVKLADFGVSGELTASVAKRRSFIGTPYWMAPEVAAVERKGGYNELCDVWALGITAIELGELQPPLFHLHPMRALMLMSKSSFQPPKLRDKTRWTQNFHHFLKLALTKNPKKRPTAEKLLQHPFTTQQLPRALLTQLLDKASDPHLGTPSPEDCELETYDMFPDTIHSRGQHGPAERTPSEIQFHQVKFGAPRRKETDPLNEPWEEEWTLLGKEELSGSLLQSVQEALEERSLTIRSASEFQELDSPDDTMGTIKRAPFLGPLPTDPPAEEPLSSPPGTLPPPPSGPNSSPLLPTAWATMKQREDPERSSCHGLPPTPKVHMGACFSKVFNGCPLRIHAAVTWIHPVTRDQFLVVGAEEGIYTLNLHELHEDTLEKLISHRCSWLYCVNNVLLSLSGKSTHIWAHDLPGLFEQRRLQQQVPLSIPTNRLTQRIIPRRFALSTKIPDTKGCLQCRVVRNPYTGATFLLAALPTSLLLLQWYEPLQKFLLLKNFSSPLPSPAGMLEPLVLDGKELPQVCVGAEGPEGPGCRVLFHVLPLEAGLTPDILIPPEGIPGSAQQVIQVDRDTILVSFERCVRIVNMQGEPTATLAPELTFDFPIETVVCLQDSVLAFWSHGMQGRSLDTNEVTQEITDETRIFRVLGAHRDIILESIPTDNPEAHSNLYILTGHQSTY
Procedure: as §1

[11] = test system: ova-sensitized, ova-challenged mice; assay: Prevention of airway hyperreactivity (Penh, methacholine) in mouse ovalbumin sensitization model; format: in vivo; conditions: for log10AUC (Penh): days 27 to 31
Procedure: The anti-inflammatory dosing paradigm consists of dosing the animals once a day starting on day 27 and finishing on either day 30 or 31 (1 hr prior to the aerosolized ovalbumin challenges on days 28 to 30) but not on day 32 when hyperreactivity evaluation occurs. […] Exposure to the methacholine doses consisted of a 3 minute period during which a nebulizer was aerosolizing the methacholine and an additional 3 minute period following the cessation of nebulization. […] Enhanced pause (Penh), a unitless index of airway hyperreactivity, is derived from the expiratory side of the respiratory waveform measured via the plethysmograph and is used as an indirect measure of airway resistance and hyperreactivity. […] Following the methacholine dose response, BALF was collected and all animals were anesthetized, bled and euthanized. […] The Penh value at each of the dose levels of methacholine represents the 6-minute average response. Change from baseline (CFB) in Penh was calculated at each methacholine dose and the area under the curve (AUC) for these CFB values was calculated using the trapezoidal rule. This same approach was applied for each mouse across multiple experiments. […] Data from equal experimental conditions across experiments performed on different days were pooled for statistical analysis and data reporting. […] A random intercept for each experiment was assumed to account for possible similarities of the results obtained from a given experiment (i.e., as a “blocking effect”). […] For FIG. 9, linear AUC values from compound treated mice were reported as a percent of linear AUC values from vehicle-treated ovalbumin-sensitized/ovalbumin-challenged (asthmatic) mice.

[12] = molecular target: T7, ERK2 (Homo sapiens, UniProt P28482); assay: Kinase panel screen (KinaseProfiler), ERK2; format: biochemical
T7 construct: purchased Upstate, Millipore Bioscience Division (KinaseProfiler service)
T7 sequence (P28482 whole entry): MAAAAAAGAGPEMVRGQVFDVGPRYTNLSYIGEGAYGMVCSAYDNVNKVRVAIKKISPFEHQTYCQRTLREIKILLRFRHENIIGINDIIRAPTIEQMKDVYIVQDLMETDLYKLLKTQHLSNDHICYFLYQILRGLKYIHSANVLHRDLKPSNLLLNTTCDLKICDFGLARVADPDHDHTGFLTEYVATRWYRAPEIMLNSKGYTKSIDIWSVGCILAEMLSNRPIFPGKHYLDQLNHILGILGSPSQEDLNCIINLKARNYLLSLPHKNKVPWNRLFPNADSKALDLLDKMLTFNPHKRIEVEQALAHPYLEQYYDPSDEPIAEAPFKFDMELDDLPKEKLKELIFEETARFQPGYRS
Procedure: as §1

[13] = molecular target: T8, Mnk2 (Homo sapiens, UniProt Q9HBH9); assay: Kinase panel screen (KinaseProfiler), Mnk2; format: biochemical; conditions: 10 μM ATP
T8 construct: purchased Upstate, Millipore Bioscience Division (KinaseProfiler service)
T8 sequence (Q9HBH9 whole entry): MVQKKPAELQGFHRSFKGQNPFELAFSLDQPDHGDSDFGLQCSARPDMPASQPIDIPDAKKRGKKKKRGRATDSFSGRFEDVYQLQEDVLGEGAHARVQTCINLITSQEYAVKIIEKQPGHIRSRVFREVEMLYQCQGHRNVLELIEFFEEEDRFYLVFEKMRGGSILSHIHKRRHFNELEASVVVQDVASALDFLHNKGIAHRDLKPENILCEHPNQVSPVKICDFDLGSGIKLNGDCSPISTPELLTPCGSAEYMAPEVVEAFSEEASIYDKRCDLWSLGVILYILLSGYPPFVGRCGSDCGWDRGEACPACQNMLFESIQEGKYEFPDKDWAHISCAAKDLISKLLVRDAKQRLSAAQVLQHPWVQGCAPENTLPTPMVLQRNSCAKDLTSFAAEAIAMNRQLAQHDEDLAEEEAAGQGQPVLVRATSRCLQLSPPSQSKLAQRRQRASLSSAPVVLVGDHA
Procedure: as §1

[14] = molecular target: T9, ERK1 (Homo sapiens, UniProt P27361); assay: Kinase panel screen (KinaseProfiler), ERK1; format: biochemical
T9 construct: purchased Upstate, Millipore Bioscience Division (KinaseProfiler service)
T9 sequence (P27361 whole entry): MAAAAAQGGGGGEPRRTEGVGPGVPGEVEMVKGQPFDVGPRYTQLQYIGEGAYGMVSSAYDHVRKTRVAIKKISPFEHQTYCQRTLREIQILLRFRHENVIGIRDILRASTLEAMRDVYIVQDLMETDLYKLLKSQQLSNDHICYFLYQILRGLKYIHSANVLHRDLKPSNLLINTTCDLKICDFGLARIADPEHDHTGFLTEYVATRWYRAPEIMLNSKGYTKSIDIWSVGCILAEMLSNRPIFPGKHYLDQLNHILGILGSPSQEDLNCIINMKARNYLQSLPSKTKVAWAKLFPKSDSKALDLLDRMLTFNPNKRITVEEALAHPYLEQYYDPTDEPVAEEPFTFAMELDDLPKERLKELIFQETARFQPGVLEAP
Procedure: as §1

[15] = 10 μM ATP, read-out: ROCK2 Ki, Avg
[16] = 30 μM ATP, Ki=IC50/(1+([ATP Challenge]/EC50 ATP)), read-out: Akt3 Ki, Avg
[17] = 30 μM ATP, Ki=IC50/(1+([ATP Challenge]/EC50 ATP)), read-out: p70S6K Ki, Avg
[18] = average Ki, read-out: p70S6K Ki

CSc1ccc(CN2CCCC(Nc3ccc4[nH]ncc4c3)C2)cc1 (stereo not shown) [Compound 1.008, N-(1-(4-(methylthio)benzyl)piperidin-3-yl)-1H-indazol-5-amine]
Cell score at 1 μM [1]: 2
Ki ([2]; Avg, 10 μM ATP): 30.5 nM
Ki [3, 15]: 3.9 nM

C#Cc1ccc(CN2CCCC(Nc3ccc4[nH]ncc4c3)C2)cc1 (stereo not shown) [Compound 1.034, N-(1-(4-ethynylbenzyl)piperidin-3-yl)-1H-indazol-5-amine]
Cell score at 1 μM [1]: 2
Ki ([2]; Avg, 10 μM ATP): 36 nM
Ki [3, 15]: 5.3 nM
IC50 [4]: 5600 nM

OCCOc1cccc(CN2CCCC(Nc3ccc4[nH]ncc4c3)C2)c1 (stereo not shown) [Compound 1.039, 2-(3-((3-(1H-indazol-5-ylamino)piperidin-1-yl)methyl)phenoxy)ethanol]
Cell score at 1 μM [1]: 2
Ki ([2]; Avg, 10 μM ATP): 209 nM
Ki [3, 15]: 24.7 nM

CS(=O)(=O)Nc1cccc(CN2CCCC(Nc3ccc4[nH]ncc4c3)C2)c1 (stereo not shown) [Compound 1.051, N-(3-((3-(1H-indazol-5-ylamino)piperidin-1-yl)methyl)phenyl)methanesulfonamide]
Cell score at 1 μM [1]: 2.5
Ki ([2]; Avg, 10 μM ATP): 37.2 nM
Ki [3, 15]: 3.8 nM

Clc1ccc(CN2CCC(Nc3cccc4cnccc34)C2)cc1Cl (stereo not shown) [Compound 2.016, N-(1-(3,4-dichlorobenzyl)pyrrolidin-3-yl)isoquinolin-5-amine]
Cell score at 1 μM [1]: 1.8
Ki ([2]; Avg, 10 μM ATP): 101 nM
Ki [3, 15]: 42.4 nM

FC(F)(F)c1cccc(CN2CCC(Nc3cccc4cnccc34)C2)c1 (stereo not shown) [Compound 2.018, N-(1-(3-(trifluoromethyl)benzyl)pyrrolidin-3-yl)isoquinolin-5-amine]
Cell score at 1 μM [1]: 1.8

NC(=O)Cn1ccc2ccc(CN3CC[C@@H](Nc4cccc5cnccc45)C3)cc21 [Compound 2.058, (R)-2-(6-((3-(isoquinolin-5-ylamino)pyrrolidin-1-yl)methyl)-1H-indol-1-yl)acetamide]
Ki [5, 16]: 1940 nM
Ki ([5]; average Ki, read-out: Akt3 Ki): 1940 nM
IL-6, % [6]: 1.3%
Ki ([2]; Avg, 10 μM ATP): 15.3 nM
Ki ([2]; average Ki): 15.3 nM
Ki [7, 17]: 213 nM
Ki [7, 18]: 213 nM
Ki [3, 15]: 3.3 nM
Ki ([3]; average Ki, read-out: ROCK2 Ki): 3.3 nM
concentration at 15 min [8]: 194 nM

OCCn1ccc2cc(CN3CC[C@@H](Nc4cccc5cnccc45)C3)ccc21 [Compound 2.066, (R)-2-(5-((3-(isoquinolin-5-ylamino)pyrrolidin-1-yl)methyl)-1H-indol-1-yl)ethanol]
activity at 1 µM ([9]; 1 μM test compound, read-out: IRAK1 Percent inhibition, 1 μM): 74%
activity at 10 µM ([9]; 10 μM test compound, read-out: IRAK1 Percent inhibition, 10 μM): 32%
Ki [5, 16]: 2510 nM
Ki ([5]; average Ki, read-out: Akt3 Ki): 2510 nM
Ki ([2]; Avg, 10 μM ATP): 10.2 nM
Ki ([2]; average Ki): 10.2 nM
Ki [7, 17]: 368 nM
Ki [7, 18]: 368 nM
GCK Percent inhibition, 1 μM [10]: 39%
activity at 10 µM ([10]; 10 μM test compound, 10 μM ATP, read-out: GCK Percent inhibition, 10 μM): 7%
log10AUC (Penh) ([11]; 0.5 μmol/kg/intratracheal): 2.0248
airway hyperreactivity ([11]; intratracheal once a day during days 27 to 31): prevention of airway hyperreactivity
ERK2 Percent inhibition, 1 μM [12]: 50%
ERK2 Percent inhibition, 10 μM [12]: 12%
inhibition at 1 µM ([12]; 1 μM, read-out: ERK2 inhibited): ~50%
Ki [3, 15]: 2.3 nM
Ki ([3]; average Ki, read-out: ROCK2 Ki): 2.3 nM
activity at 1 µM ([13]; 1 μM test compound, read-out: Mnk2 Percent inhibition, 1 μM): 99%
activity at 10 µM ([13]; 10 μM test compound, read-out: Mnk2 Percent inhibition, 10 μM): 54%
activity at 1 µM ([14]; 1 μM test compound, 10 μM ATP, read-out: ERK1 Percent inhibition, 1 μM): 52%
inhibition at 1 µM ([14]; 1 μM, read-out: ERK1 inhibited): ~50%
activity at 10 µM ([14]; 10 μM test compound, 10 μM ATP, read-out: ERK1 Percent inhibition, 10 μM): 15%

C[C@@H](N)[C@H]1CC[C@H](C(=O)Nc2ccncc2)CC1 [Compound Y-27632, reference compound]
log10AUC (Penh) ([11]; 30 μmol/kg/oral): 1.9942
IC50 [4]: 6760 nM

C[C@@H]1C[C@H]2[C@@H]3CCC4=CC(=O)C=C[C@]4(C)[C@@]3(F)[C@@H](O)C[C@]2(C)[C@@]1(O)C(=O)CO [Dexamethasone, dexamethasone, reference compound]
log10AUC (Penh) ([11]; 1 mg/kg/oral): 2.0216
